Data as given in ChEMBL document CHEMBL1649461, “Fitness cost of VanA-type vancomycin resistance in methicillin-resistant Staphylococcus aureus” (2009).
Values after ≈ are worked out from the molar mass of the structure shown.

Tests used:
Assay type in all cases: functional
Staphylococcus aureus [1] = assay: Antimicrobial activity against VanA-type vancomycin-resistant and methicillin-resistant Staphylococcus aureus 6 by broth dilution method
Staphylococcus aureus [2] = assay: Antimicrobial activity against VanA-type vancomycin-resistant and methicillin-resistant Staphylococcus aureus 1 by broth dilution method
Staphylococcus aureus [3] = assay: Antimicrobial activity against methicillin-resistant Staphylococcus aureus HIP11713 by broth dilution method
Staphylococcus aureus [4] = assay: Antimicrobial activity against VanA-type vancomycin-resistant and methicillin-resistant Staphylococcus aureus 5 by broth dilution method

SMILES | MIC (Staphylococcus aureus [1]) | MIC (Staphylococcus aureus [2]) | MIC (Staphylococcus aureus [3]) | MIC (Staphylococcus aureus [4])
CC(=O)N[C@@H]1[C@H](Oc2c3cc4cc2Oc2ccc(cc2Cl)[C@@H](O[C@@H]2O[C@@H](CO)[C@@H](O)[C@H](O)[C@@H]2NC(C)=O)[C@@H]2NC(=O)[C@H](NC(=O)[C@@H]4NC(=O)[C@H]4NC(=O)[C@@H](Cc5ccc(c(Cl)c5)O3)NC(=O)[C@H](N)c3ccc(O)c(c3)Oc3cc(O)cc4c3)c3ccc(O)c(c3)-c3c(O[C@H]4O[C@H](CO)[C@@H](O)[C@@H](O)[C@@H]4O)cc(O)cc3[C@@H](C(=O)O)NC2=O)O[C@@H](CO)[C@@H](O)[C@@H]1O | 128 µg/mL (≈ 72.4 µM) | 256 µg/mL (≈ 145 µM) | 1 µg/mL (≈ 0.566 µM) | 64 µg/mL (≈ 36.2 µM)
CN[C@H](CC(C)C)C(=O)N[C@H]1C(=O)N[C@@H](CC(N)=O)C(=O)N[C@H]2C(=O)N[C@H]3C(=O)N[C@H](C(=O)N[C@H](C(=O)O)c4cc(O)cc(O)c4-c4cc3ccc4O)[C@H](O)c3ccc(c(Cl)c3)Oc3cc2cc(c3O[C@@H]2O[C@H](CO)[C@@H](O)[C@H](O)[C@H]2O[C@H]2C[C@](C)(N)[C@H](O)[C@H](C)O2)Oc2ccc(cc2Cl)[C@H]1O [VANCOMYCIN] | 1020 µg/mL (≈ 707 µM) | 2050 µg/mL (≈ 1410 µM) | – | 1020 µg/mL (≈ 707 µM)
